Measured values published in PMC9719519, “Non-classical ferroptosis inhibition by a small molecule targeting PHB2” (Nature Communications, 2022).

Columns and labels:
Test in all cases: biochemical
Design in all cases: Eurofins recombinant human kinase profiling, remaining kinase activity as % of control, 10 uM ATP
Settings in all cases: ATP 10 uM; read-out: %Ctrl@10 μM
IRAK1(h) = IRAK1(h) (Homo sapiens, UniProt P51617)
Text: (§1) To rapidly determine the biological target of YL-939, we first tested the activity of YL-939 against a panel of 401 recombinant human protein kinases by using the kinase profiling assay provided by Eurofins, since kinases are often the key components in various signal pathways[35],[36]. […] We then carried out affinity-based proteome profiling assay (ABPP) coupled with bioimaging to identify the biological target of YL-939 (Fig. 4A). To this end, we designed and synthesized a photoaffinity probe, YL-939-1 (Fig. 4A and Supplementary Fig. 5), which is YL-939 attached by a photo-crosslinker (L3) that contains a photo-reactive group diazirine and a clickable alkyne handle.

Fms(h) = biological target: T1, Fms(h) (Homo sapiens, UniProt P07333)
T1 construct: gene CSF1R
Text: as §1

DDR1(h) = DDR1(h) (Homo sapiens, UniProt Q08345)
Text: as §1

PDGFRα(D842V)(h) = biological target: T2, PDGFRα(D842V)(h) (Homo sapiens, UniProt P16234, D842V)
T2 construct: gene PDGFRA
Text: as §1

PAR-1Bα(h) = biological target: T3, PAR-1Bα(h) (Homo sapiens, UniProt Q7KZI7)
T3 construct: gene MARK2
Text: as §1

CDKL4(h) = CDKL4(h) (Homo sapiens, UniProt Q5MAI5)
Text: as §1

MuSK(h) = MuSK(h) (Homo sapiens, UniProt O15146)
Text: as §1

TGFBR1(h) = TGFBR1(h) (Homo sapiens, UniProt P36897)
Text: as §1

FGFR2(h) = FGFR2(h) (Homo sapiens, UniProt P21802)
Text: as §1

MYLK2(h) = MYLK2(h) (Homo sapiens, UniProt Q9H1R3)
Text: as §1

MAP4K3(h) = MAP4K3(h) (Homo sapiens, UniProt Q8IVH8)
Text: as §1

IGF-1R(h), activated = biological target: T4, IGF-1R(h), activated (Homo sapiens, UniProt P08069)
T4 construct: gene IGF1R
Text: as §1

DMPK(h) = DMPK(h) (Homo sapiens, UniProt Q09013)
Text: as §1

DYRK1A(h) = DYRK1A(h) (Homo sapiens, UniProt Q13627)
Text: as §1

MLK1(h) = biological target: T5, MLK1(h) (Homo sapiens, UniProt P80192)
T5 construct: gene MAP3K9
Text: as §1

CaMKIIγ(h) = biological target: T6, CaMKIIγ(h) (Homo sapiens, UniProt Q13555)
T6 construct: gene CAMK2G
Text: as §1

Ron(h) = biological target: T7, Ron(h) (Homo sapiens, UniProt Q04912)
T7 construct: gene MST1R
Text: as §1

CK1δ(h) = biological target: T8, CK1δ(h) (Homo sapiens, UniProt P48730)
T8 construct: gene CSNK1D
Text: as §1

GCN2(h) = biological target: T9, GCN2(h) (Homo sapiens, UniProt Q9P2K8)
T9 construct: gene EIF2AK4
Text: as §1

BIKe(h) = biological target: T10, BIKe(h) (Homo sapiens, UniProt Q9NSY1)
T10 construct: gene BMP2K
Text: as §1

SIK3(h) = SIK3(h) (Homo sapiens, UniProt Q9Y2K2)
Text: as §1

CK1γ1(h) = biological target: T11, CK1γ1(h) (Homo sapiens, UniProt Q9HCP0)
T11 construct: gene CSNK1G1
Text: as §1

IKKα(h) = biological target: T12, IKKα(h) (Homo sapiens, UniProt O15111)
T12 construct: gene CHUK
Text: as §1

DDR1(h), sequence (Q08345 whole entry): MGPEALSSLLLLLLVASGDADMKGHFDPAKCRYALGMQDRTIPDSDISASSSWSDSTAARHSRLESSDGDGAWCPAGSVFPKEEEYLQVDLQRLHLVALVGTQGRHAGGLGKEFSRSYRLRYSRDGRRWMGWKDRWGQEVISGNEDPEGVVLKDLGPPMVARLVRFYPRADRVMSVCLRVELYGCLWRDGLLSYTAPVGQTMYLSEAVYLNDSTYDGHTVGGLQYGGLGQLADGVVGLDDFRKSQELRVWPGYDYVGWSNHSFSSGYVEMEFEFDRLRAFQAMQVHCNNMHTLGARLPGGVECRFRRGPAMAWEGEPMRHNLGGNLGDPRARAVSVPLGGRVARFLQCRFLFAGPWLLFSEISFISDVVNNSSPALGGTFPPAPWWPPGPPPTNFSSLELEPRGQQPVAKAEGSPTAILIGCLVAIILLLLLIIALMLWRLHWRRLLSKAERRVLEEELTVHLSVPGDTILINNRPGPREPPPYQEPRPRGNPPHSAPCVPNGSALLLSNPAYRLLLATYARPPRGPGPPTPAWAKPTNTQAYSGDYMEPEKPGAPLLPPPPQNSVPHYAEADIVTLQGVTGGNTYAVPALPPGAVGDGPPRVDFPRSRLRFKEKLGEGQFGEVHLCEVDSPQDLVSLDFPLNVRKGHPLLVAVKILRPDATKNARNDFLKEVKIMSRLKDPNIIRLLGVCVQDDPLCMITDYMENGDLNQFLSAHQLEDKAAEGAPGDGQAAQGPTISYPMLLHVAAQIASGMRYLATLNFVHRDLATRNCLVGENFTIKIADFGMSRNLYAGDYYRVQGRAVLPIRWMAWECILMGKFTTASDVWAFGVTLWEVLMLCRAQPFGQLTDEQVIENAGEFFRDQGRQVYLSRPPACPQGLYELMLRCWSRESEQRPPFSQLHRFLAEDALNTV
T4 sequence (P08069 whole entry): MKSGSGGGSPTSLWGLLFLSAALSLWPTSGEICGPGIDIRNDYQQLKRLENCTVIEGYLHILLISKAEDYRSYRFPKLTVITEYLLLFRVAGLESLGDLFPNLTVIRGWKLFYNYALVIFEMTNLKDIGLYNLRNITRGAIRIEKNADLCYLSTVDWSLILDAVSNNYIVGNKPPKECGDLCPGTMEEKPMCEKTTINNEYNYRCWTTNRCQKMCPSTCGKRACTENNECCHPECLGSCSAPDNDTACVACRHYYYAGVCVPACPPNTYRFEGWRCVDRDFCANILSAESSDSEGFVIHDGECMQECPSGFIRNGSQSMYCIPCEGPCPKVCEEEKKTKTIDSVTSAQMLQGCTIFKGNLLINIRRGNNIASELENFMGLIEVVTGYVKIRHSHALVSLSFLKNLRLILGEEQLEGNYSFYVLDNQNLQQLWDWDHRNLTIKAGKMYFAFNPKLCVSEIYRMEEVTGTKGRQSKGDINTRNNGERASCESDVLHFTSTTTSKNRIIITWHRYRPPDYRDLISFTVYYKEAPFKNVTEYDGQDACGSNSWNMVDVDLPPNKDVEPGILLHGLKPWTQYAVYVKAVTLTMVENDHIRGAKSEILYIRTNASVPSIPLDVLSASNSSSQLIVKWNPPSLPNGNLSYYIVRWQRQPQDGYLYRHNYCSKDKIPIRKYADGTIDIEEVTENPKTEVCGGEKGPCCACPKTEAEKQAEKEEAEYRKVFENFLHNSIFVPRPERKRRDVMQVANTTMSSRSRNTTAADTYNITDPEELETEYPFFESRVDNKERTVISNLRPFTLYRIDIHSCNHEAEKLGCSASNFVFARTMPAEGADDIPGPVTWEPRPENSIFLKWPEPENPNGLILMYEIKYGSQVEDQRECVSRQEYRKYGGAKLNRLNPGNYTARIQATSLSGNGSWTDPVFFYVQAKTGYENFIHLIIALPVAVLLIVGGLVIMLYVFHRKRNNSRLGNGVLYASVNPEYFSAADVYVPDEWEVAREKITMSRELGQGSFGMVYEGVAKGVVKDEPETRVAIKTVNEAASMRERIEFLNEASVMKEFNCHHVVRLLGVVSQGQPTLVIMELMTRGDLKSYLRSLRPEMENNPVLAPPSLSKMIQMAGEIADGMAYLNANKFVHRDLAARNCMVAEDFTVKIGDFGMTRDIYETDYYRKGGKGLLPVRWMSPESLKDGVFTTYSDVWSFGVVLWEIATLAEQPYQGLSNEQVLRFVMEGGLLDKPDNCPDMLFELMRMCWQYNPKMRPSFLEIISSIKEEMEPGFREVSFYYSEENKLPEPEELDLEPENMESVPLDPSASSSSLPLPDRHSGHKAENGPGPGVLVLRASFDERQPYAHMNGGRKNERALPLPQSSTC
MAP4K3(h), sequence (Q8IVH8 whole entry): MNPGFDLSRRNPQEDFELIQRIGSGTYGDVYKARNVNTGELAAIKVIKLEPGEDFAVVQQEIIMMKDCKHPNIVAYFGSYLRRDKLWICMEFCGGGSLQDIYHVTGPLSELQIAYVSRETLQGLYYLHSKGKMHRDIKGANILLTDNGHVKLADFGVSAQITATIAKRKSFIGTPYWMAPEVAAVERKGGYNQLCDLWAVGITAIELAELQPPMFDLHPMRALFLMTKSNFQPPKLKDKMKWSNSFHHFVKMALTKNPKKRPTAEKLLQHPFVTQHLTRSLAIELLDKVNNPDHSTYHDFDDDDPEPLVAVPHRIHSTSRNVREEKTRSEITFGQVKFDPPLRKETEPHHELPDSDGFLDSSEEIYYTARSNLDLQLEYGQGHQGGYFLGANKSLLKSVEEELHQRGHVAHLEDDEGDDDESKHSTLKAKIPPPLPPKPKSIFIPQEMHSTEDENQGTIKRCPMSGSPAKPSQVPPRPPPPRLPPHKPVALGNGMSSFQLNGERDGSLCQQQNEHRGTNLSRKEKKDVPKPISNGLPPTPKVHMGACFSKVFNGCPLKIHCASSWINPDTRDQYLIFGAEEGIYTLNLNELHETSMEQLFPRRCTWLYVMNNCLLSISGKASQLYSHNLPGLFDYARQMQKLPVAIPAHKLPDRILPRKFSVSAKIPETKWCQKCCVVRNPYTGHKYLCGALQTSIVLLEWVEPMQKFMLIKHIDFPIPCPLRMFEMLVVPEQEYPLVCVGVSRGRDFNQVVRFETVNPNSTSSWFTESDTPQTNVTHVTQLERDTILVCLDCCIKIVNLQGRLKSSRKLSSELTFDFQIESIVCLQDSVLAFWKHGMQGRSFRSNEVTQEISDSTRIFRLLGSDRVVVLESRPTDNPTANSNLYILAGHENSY
T7 sequence (Q04912 whole entry): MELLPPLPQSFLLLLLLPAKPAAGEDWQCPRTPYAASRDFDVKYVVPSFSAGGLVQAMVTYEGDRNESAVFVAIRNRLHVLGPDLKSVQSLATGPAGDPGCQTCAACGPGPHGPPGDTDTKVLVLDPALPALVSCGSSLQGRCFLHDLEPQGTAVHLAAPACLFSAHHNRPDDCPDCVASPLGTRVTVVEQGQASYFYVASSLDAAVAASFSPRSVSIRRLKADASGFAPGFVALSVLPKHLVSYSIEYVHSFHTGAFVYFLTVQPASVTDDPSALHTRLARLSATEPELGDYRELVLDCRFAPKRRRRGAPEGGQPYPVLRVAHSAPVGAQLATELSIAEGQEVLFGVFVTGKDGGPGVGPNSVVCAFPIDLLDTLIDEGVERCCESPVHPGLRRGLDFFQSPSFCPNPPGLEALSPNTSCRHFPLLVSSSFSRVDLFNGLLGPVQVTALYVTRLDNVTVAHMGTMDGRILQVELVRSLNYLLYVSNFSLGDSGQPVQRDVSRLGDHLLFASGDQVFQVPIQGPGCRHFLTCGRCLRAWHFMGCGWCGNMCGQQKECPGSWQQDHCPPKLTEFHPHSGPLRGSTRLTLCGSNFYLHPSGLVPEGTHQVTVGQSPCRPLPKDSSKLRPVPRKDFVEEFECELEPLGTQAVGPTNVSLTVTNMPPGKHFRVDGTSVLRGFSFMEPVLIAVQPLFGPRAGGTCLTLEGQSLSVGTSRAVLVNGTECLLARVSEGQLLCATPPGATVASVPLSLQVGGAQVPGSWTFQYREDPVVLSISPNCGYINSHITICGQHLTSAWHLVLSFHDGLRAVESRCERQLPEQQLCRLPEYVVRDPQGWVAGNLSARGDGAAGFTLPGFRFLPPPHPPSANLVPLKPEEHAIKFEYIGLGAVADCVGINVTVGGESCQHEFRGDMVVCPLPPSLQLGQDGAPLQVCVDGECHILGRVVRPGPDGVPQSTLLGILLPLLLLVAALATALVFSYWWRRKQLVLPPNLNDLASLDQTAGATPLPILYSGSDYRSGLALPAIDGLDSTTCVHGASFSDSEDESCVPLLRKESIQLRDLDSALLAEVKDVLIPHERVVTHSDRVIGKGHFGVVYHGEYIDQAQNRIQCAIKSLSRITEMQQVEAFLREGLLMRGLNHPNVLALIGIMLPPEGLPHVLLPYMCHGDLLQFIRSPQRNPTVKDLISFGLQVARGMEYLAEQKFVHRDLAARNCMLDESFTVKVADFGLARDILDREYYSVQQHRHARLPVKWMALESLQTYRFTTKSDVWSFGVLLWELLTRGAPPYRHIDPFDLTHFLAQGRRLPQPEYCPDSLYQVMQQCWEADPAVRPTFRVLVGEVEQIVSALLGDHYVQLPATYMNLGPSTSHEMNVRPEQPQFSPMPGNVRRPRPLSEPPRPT
T8 sequence (P48730 whole entry): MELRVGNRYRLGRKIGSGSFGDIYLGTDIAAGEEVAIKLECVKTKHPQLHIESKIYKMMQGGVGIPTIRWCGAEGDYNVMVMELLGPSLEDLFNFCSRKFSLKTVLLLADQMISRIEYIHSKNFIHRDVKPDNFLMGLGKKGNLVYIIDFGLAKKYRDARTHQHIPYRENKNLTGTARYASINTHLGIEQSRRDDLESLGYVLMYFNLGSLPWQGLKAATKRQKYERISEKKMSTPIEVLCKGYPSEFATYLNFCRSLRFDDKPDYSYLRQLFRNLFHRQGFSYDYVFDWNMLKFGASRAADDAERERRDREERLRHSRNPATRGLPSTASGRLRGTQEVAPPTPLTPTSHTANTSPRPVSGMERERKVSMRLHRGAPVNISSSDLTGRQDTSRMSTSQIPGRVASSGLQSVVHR

`C1=C(c2nc(-c3cnn(C4CCNCC4)c3)cn3cc(-c4ccccc4)nc23)CCOC1` [YL-939] was tested, and the remaining activity at 10 µM (IRAK1(h)) was 118%, the remaining activity at 10 µM (Fms(h)) was 122% and the remaining activity at 10 µM (DDR1(h)) was 98%. It also gave a remaining activity at 10 µM (PDGFRα(D842V)(h)) of 113%, a remaining activity at 10 µM (PAR-1Bα(h)) of 101% and a remaining activity at 10 µM (CDKL4(h)) of 76%. For the same compound, the remaining activity at 10 µM (MuSK(h)) was 88%, the remaining activity at 10 µM (TGFBR1(h)) was 101% and the remaining activity at 10 µM (FGFR2(h)) was 95%. For the same compound, the remaining activity at 10 µM (MYLK2(h)) was 52%, the remaining activity at 10 µM (MAP4K3(h)) was 79% and the remaining activity at 10 µM (IGF-1R(h), activated) was 95%. The remaining activity at 10 µM (DMPK(h)) was 107%, the remaining activity at 10 µM (DYRK1A(h)) was 83% and the remaining activity at 10 µM (MLK1(h)) was 86%. It also gave a remaining activity at 10 µM (CaMKIIγ(h)) of 86%, a remaining activity at 10 µM (Ron(h)) of 99% and a remaining activity at 10 µM (CK1δ(h)) of 111%. It also gave a remaining activity at 10 µM (GCN2(h)) of 67%, a remaining activity at 10 µM (BIKe(h)) of 115% and a remaining activity at 10 µM (SIK3(h)) of 84%. The remaining activity at 10 µM (CK1γ1(h)) was 112% and the remaining activity at 10 µM (IKKα(h)) was 92%.
